# Measured values as given in patent US10238670B2, “9-aminomethyl minocycline compounds and methods of use thereof in urinary tract infection (UTI) treatment” (Paratek Pharmaceuticals, Inc., priority 2016, dated 2019).
# Columns and labels:
# Test in all cases: In vitro MIC, 2010 surveillance isolates
# E. cloacae CeftazR = format: cell-based
# Enterobacter spp = format: cell-based
# A. baumanii = format: cell-based
# Acinetobacter spp = format: cell-based; settings: for range of MICs (N <10, shown instead of MIC90): N=9
# MSSA = format: cell-based; settings: for Cumulative % Inhibition at MIC: N=5713
# MRSA = format: cell-based; settings: for Cumulative % Inhibition at MIC: N=4192
# MS CoNS = format: cell-based, Coagulase-Negative Staphylococcus; settings: for Cumulative % Inhibition at MIC: N=461
# MR CoNS = format: cell-based, Coagulase-Negative Staphylococcus; settings: for Cumulative % Inhibition at MIC: N=1349
# E. faecalis VS = format: cell-based; settings: for Cumulative % Inhibition at MIC: N=2036
# E. faecalis VNS = format: cell-based; settings: for Cumulative % Inhibition at MIC: N=54
# E. faecium VS = format: cell-based; settings: for Cumulative % Inhibition at MIC: N=575
# E. faecium VNS = format: cell-based; settings: for Cumulative % Inhibition at MIC: N=614
structure (smiles),measurement,setting,value
"CN(C)c1cc(CNCC(C)(C)C)c(O)c2c1C[C@H]1C[C@H]3[C@H](N(C)C)C(O)=C(C(N)=O)C(=O)[C@@]3(O)C(O)=C1C2=O [Compound 1, 9-[(2,2-dimethyl-propylamino)-methyl]-minocycline]",Cumulative % Inhibition at MIC,"E. cloacae CeftazR; MIC ≥32 μg/ml, N=254",100%
same,MIC90,"E. cloacae CeftazR; N America, N=77",16 µg/mL
same,MIC90,"Enterobacter spp; Asia/Pac, N=52",16 µg/mL
same,MIC90,"Enterobacter spp; Europe, N=82",4 µg/mL
same,MIC90,"Enterobacter spp; L. Amer, N=42",4 µg/mL
same,MIC90,"Enterobacter spp; N America, N=101",4 µg/mL
same,MIC90,"A. baumanii; Asia/Pac, N=275",4 µg/mL
same,MIC90,"A. baumanii; Europe, N=145",4 µg/mL
same,MIC90,"A. baumanii; L. Amer, N=275",4 µg/mL
same,MIC90,"A. baumanii; N America, N=154",8 µg/mL
same,"range of MICs (N <10, shown instead of MIC90)",Acinetobacter spp; Asia/Pac,0.06-2
same,MIC90,"Acinetobacter spp; Europe, N=43",4 µg/mL
same,"range of MICs (N <10, shown instead of MIC90)",Acinetobacter spp; L. Amer,0.03-4
same,MIC90,"Acinetobacter spp; N America, N=42",2 µg/mL
same,MIC90,"MSSA; Asia/Pac, N=641",0.5 µg/mL
same,MIC90,"MSSA; Europe, N=2109",0.25 µg/mL
same,MIC90,"MSSA; L. Amer, N=590",0.25 µg/mL
same,Cumulative % Inhibition at MIC,MSSA; MIC 1 μg/ml,99.9%
same,Cumulative % Inhibition at MIC,MSSA; MIC 2 μg/ml,100%
same,Cumulative % Inhibition at MIC,MSSA; MIC ≤0.5 μg/ml,99.7%
same,MIC90,"MSSA; N America, N=2373",0.25 µg/mL
same,MIC90,"MRSA; Asia/Pac, N=428",1 µg/mL
same,MIC90,"MRSA; Europe, N=750",0.25 µg/mL
same,MIC90,"MRSA; L. Amer, N=506",0.25 µg/mL
same,Cumulative % Inhibition at MIC,MRSA; MIC 1 μg/ml,98.4%
same,Cumulative % Inhibition at MIC,MRSA; MIC 2 μg/ml,99.8%
same,Cumulative % Inhibition at MIC,MRSA; MIC 4 μg/ml,100%
same,Cumulative % Inhibition at MIC,MRSA; MIC ≤0.5 μg/ml,95.4%
same,MIC90,"MRSA; N America, N=2508",0.5 µg/mL
same,MIC90,"MS CoNS; Asia/Pac, N=18",0.25 µg/mL
same,MIC90,"MS CoNS; Europe, N=185",1 µg/mL
same,MIC90,"MS CoNS; L. Amer, N=67",0.5 µg/mL
same,Cumulative % Inhibition at MIC,MS CoNS; MIC 1 μg/ml,99.8%
same,Cumulative % Inhibition at MIC,MS CoNS; MIC 2 μg/ml,100%
same,Cumulative % Inhibition at MIC,MS CoNS; MIC ≤0.5 μg/ml,92.4%
same,MIC90,"MS CoNS; N America, N=191",0.5 µg/mL
same,MIC90,"MR CoNS; Asia/Pac, N=77",1 µg/mL
same,MIC90,"MR CoNS; Europe, N=510",1 µg/mL
same,MIC90,"MR CoNS; L. Amer, N=301",1 µg/mL
same,Cumulative % Inhibition at MIC,MR CoNS; MIC 1 μg/ml,99.1%
same,Cumulative % Inhibition at MIC,MR CoNS; MIC 2 μg/ml,100%
same,Cumulative % Inhibition at MIC,MR CoNS; MIC ≤0.5 μg/ml,85.9%
same,MIC90,"MR CoNS; N America, N=461",1 µg/mL
same,MIC90,"E. faecalis VS; Asia/Pac, N=214",0.5 µg/mL
same,MIC90,"E. faecalis VS; Europe, N=669",0.25 µg/mL
same,MIC90,"E. faecalis VS; L. Amer, N=290",0.25 µg/mL
same,Cumulative % Inhibition at MIC,E. faecalis VS; MIC 1 μg/ml,99.9%
same,Cumulative % Inhibition at MIC,E. faecalis VS; MIC 2 μg/ml,100%
same,Cumulative % Inhibition at MIC,"E. faecalis VS; MIC ≤0.5 μg/ml, listed as head image P00001",99.3%
same,MIC90,"E. faecalis VS; N America, N=863",0.5 µg/mL
same,"range of MICs (N <10, shown instead of MIC90)","E. faecalis VNS; Asia/Pac, N=1",0.5
same,"range of MICs (N <10, shown instead of MIC90)","E. faecalis VNS; Europe, N=8",0.06-0.5
same,"range of MICs (N <10, shown instead of MIC90)","E. faecalis VNS; L. Amer, N=7",≤0.015-0.06
same,Cumulative % Inhibition at MIC,E. faecalis VNS; MIC 1 μg/ml,100%
same,Cumulative % Inhibition at MIC,"E. faecalis VNS; MIC ≤0.5 μg/ml, listed as head image P00002",98.1%
same,MIC90,"E. faecalis VNS; N America, N=38",0.25 µg/mL
same,MIC90,"E. faecium VS; Asia/Pac, N=106",0.25 µg/mL
same,MIC90,"E. faecium VS; Europe, N=303",0.12 µg/mL
same,MIC90,"E. faecium VS; L. Amer, N=51",0.12 µg/mL
same,Cumulative % Inhibition at MIC,E. faecium VS; MIC 1 μg/ml,100%
same,Cumulative % Inhibition at MIC,"E. faecium VS; MIC ≤0.5 μg/ml, listed as head image P00003",99.8%
same,MIC90,"E. faecium VS; N America, N=115",0.25 µg/mL
same,MIC90,"E. faecium VNS; Asia/Pac, N=24",0.25 µg/mL
same,MIC90,"E. faecium VNS; Europe, N=71",0.25 µg/mL
same,MIC90,"E. faecium VNS; L. Amer, N=41",0.12 µg/mL
same,Cumulative % Inhibition at MIC,E. faecium VNS; MIC 1 μg/ml,100%
same,Cumulative % Inhibition at MIC,"E. faecium VNS; MIC ≤0.5 μg/ml, listed as head image P00004",98.4%
same,MIC90,"E. faecium VNS; N America, N=478",0.25 µg/mL
